Assay results taken from patent US8304422B2, “Compositions and methods for inhibition of the JAK pathway” (Rigel Pharmaceuticals, Inc., priority 2007, dated 2012).

Key:
BaF3 V617F cells; UKE-1 = assay: Proliferation Assay (Cell Titer-Glo; Example 7); format: cell-based; conditions: proliferation 72 hours, inhibit JAK2 activity, cell line (BaF3 V617F or UKE-1) not stated
Procedure, shortened: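 BaF3 V617F cells (RPMI, 10% FBS) and UKE-1 cells (Iscove's DMEM, 10% FBS, 10% equine serum, 1 uM hydrocortisone) were exposed to 3-fold serially diluted compound in duplicate for 72 hours at 37 °C. Viable cell number quantified by Cell Titer-Glo luminescence; IC50 reported.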

[1] = test system: Ramos B-Cell Line Stimulated with IL-4; assay: Assay for Ramos B-Cell Line Stimulated with IL-4 (CD23 upregulation, FACS; Example 2); format: cell-based; conditions: human Ramos B cells, IL-4 50 units/mL for 20-24 hours, anti-CD23-PE
Excerpt: One means of assaying for such inhibition is detection of the effect of the 2,4-pyrimidinediamine compounds on the upregulation of downstream gene products. In the Ramos/IL4 assay, B-cells are stimulated with the cytokine Interleukin-4 (IL-4) leading to the activation of the JAK/Stat pathway through phosphorylation of the JAK family kinases, JAK1 and JAK3, which in turn phosphorylate and activate the transcription factor Stat-6. […] To study the effect of inhibitors (e.g., the 2,4-substituted pyrimindinediamine compounds described herein) on the JAK1 and JAK3 kinases, human Ramos B cells are stimulated with human IL-4. 20 to 24 hours post stimulation, cells are stained for upregulation of CD23 and analyzed using flow cytometry (FACS). […] An exemplary assay of this type is described in greater detail in Example 2.
B-cells stimulated with cytokine Interleukin-4 (IL-4) activate the JAK/Stat pathway through phosphorylation of the JAK family kinases, JAK-1 and JAK-3, which in turn phosphorylate and activate the transcription factor Stat-6. […] To study the effect of inhibitors on the JAK family kinases, human Ramos B cells are stimulated with human IL-4.
The Ramos B-cell line was acquired from ATCC (ATCC Catalog No. CRL-1596). The cells were cultured in RPMI 1640 (Cellgro, MediaTech, Inc., Herndon, Va., Cat No. 10-040-CM) with 10% fetal bovine serum (FBS), heat inactivated (JRH Biosciences, Inc, Lenexa, Kans., Cat No. 12106-500M) according to ATCC propagation protocol. Cells were maintained at a density of 3.5×10^5. The day before the experiment, Ramos B-cells were diluted to 3.5×10^5 cells/mL to ensure that they were in a logarithmic growth phase.
Cells were spun down and suspended in RPMI with 5% serum. 5×10^4 cells were used per point in a 96-well tissue culture plate. Cells were pre-incubated with compound or DMSO (Sigma-Aldrich, St. Louis, Mo., Cat No. D2650) vehicle control for 1 hour in a 37° C. incubator.
Cells were then stimulated with IL-4 (Peprotech Inc., Rocky Hill, N.J., Cat No. 200-04) for a final concentration of 50 units/mL for 20-24 hours. Cells were then spun down and stained with anti-CD23-PE (BD Pharmingen, San Diego, Calif., Cat No. 555711) and analyzed by FACS. Detection was performed using a BD LSR I System Flow Cytometer, purchased from Becton Dickinson Biosciences of San Jose, Calif.

Row | IC50 (BaF3 V617F cells; UKE-1) [nM] | IC50 [1] [nM] | Compound
1 | 56100 | 1920 | O=S(=O)(NCc1ccc(Nc2nc(NC3CCCC3)ncc2F)cc1)C1CC1 [VIII-2, N2-cyclopentyl-N4-(4-cyclopropylsulfonylaminomethyl)phenyl-5-fluoro-2,4-pyrimidinediamine]
2 | 2210 | 106 | Cc1cnc(Nc2ccc(C(N)=O)cc2)nc1Nc1ccc(CN(C)S(=O)(=O)C2CC2)cc1 [II-19, N2-(4-aminocarbonyl)phenyl-N4-[4-(N-cyclopropylsulfonyl-N-methyl)aminomethyl]phenyl-5-methyl-2,4-pyrimidinediamine]
3 | 2690 | 302 | Cc1cnc(Nc2cccc(C(N)=O)c2)nc1Nc1cccc(CN(C)S(=O)(=O)C2CC2)c1 [II-22, N2-(3-aminocarbonyl)phenyl-N4-[3-(N-cyclopropylsulfonyl-N-methyl)aminomethyl]phenyl-5-methyl-2,4-pyrimidinediamine]
4 | 488 | 78.3 | COc1c(C)cc(Nc2ncc(C)c(Nc3cccc(CNS(=O)(=O)C4CC4)c3)n2)cc1C [II-44, N4-(3-cyclopropylsulfonylaminomethyl)phenyl-N2-(3,5-dimethyl-4-methoxy)phenyl-5-methyl-2,4-pyrimidinediamine]
5 | 359 | 126 | COc1cc(Nc2ncc(C)c(Nc3cccc(CNS(=O)(=O)C4CC4)c3)n2)cc(OC)c1OC [II-13, N4-(3-cyclopropylsulfonylaminomethyl)phenyl-5-methyl-N2-(3,4,5-trimethoxy)phenyl-2,4-pyrimidinediamine]
6 | 200 | 36.2 | CCN1CCN(c2ccc(Nc3ncc(C)c(Nc4ccc(CNS(=O)(=O)C5CC5)cc4)n3)cc2C)CC1 [II-8, N4-(4-cyclopropylsulfonylaminomethyl)phenyl-N2-[4-(4-ethylpiperazino)-3-methyl]phenyl-5-methyl-2,4-pyrimidinediamine]
7 | 698 | 20.3 | Cc1cnc(Nc2ccc(C#N)cc2)nc1Nc1ccc(CNS(=O)(=O)C2CC2)cc1 [II-33, N2-(4-cyano)phenyl-N4-(4-cyclopropylsulfonylaminomethyl)phenyl-5-methyl-2,4-pyrimidinediamine]
8 | 599 | 38.1 | Cc1cc(C)cc(Nc2ncc(Cl)c(Nc3ccc(CNS(=O)(=O)C4CC4)cc3)n2)c1 [II-36, 5-chloro-N4-(4-cyclopropylsulfonylaminomethyl)phenyl-N2-(3,5-dimethyl)phenyl-2,4-pyrimidinediamine]
9 | 807 | 1220 | Cc1cnc(Nc2ccc(C3CCN(C)CC3)cc2)nc1Nc1ccc2c(c1)C(NS(C)(=O)=O)CC2 (racemic) [V-2, (+/−)-5-Methyl-N2-[4-(1-methyl-4-piperidinyl)pheny]-N4-[1-(methylsulfonyl)aminoindan-6-yl]-2,4-pyrimidinediamine]
10 | 2970 | 290 | O=S(=O)(NCc1ccc(Nc2nc(Nc3ccc4ccn(CCN5CCOCC5)c4c3)ncc2F)cc1)C1CC1 [III-1, N4-[4-(Cyclopropylsulfonylaminomethyl)phenyl]-5-fluoro-N2-[1-(2-(N-morpholino)ethyl)indol-6-yl]-2,4-pyrimidinediamine]
11 | 3400 | 88 | Cc1cc(C)cc(Nc2ncc(F)c(Nc3ccc(CNS(=O)(=O)C4CC4)cc3)n2)c1 [II-4, N4-(4-cyclopropylsulfonylaminomethyl)phenyl-N2-(3,5-dimethyl)phenyl-5-fluoro-2,4-pyrimidinediamine]
12 | 8060 | 78.1 | NC(=O)c1ccc(Nc2ncc(F)c(Nc3ccc(CNS(=O)(=O)C4CC4)cc3)n2)cc1 [II-15, N2-(4-aminocarbonyl)phenyl-N4-(4-cyclopropylsulfonylaminomethyl)phenyl-5-fluoro-2,4-pyrimidinediamine]
13 | 138 | 36.4 | CCN1CCN(c2ccc(Nc3ncc(F)c(Nc4ccc(CNS(=O)(=O)C5CC5)cc4)n3)cc2C)CC1 [II-6, N4-(4-cyclopropylsulfonylaminomethyl)phenyl-N2-[4-(4-ethylpiperazino)-3-methyl]phenyl-5-fluoro-2,4-pyrimidinediamine]
14 | 2950 | 87.1 | Cc1cnc(Nc2ccc(C(N)=O)cc2)nc1Nc1ccc(CNS(=O)(=O)C2CC2)c(Cl)c1 [II-17, N2-(4-aminocarbonyl)phenyl-N4-(3-chloro-4-cyclopropylsulfonylaminomethyl)phenyl-5-methyl-2,4-pyrimidinediamine]
15 | 2200 | 704 | Cc1cc(C)cc(Nc2ncc(C)c(Nc3cccc(CN(C)S(=O)(=O)C4CC4)c3)n2)c1 [II-40, N4-[3-(N-cyclopropylsulfonyl-N-methyl)aminomethyl]phenyl-N2-(3,5-dimethyl)phenyl-5-methyl-2,4-pyrimidinediamine]
16 | 2300 | 142 | Cc1cnc(Nc2ccc(C#N)cc2)nc1Nc1cccc(CNS(=O)(=O)C2CC2)c1 [II-25, N2-(4-cyano)phenyl-N4-(3-cyclopropylsulfonylaminomethyl)phenyl-5-methyl-2,4-pyrimidinediamine]
17 | – | 153 | C#CCOc1ccc(Nc2ncc(C(F)(F)F)c(Nc3ccc(C)c(S(N)(=O)=O)c3)n2)cc1 [I-3, N4-(3-Aminosulfonyl-4-methylphenyl)-N2-[4-(prop-2-ynyloxy)phenyl]-5-trifluoromethyl-2,4-pyrimidinediamine]
18 | – | 614 | O=S(=O)(NCc1ccc(Nc2nc(Nc3ccc(F)c(F)c3)ncc2F)cc1)C1CC1 [II-2, N4-(4-cyclopropylsulfonylaminomethyl)phenyl-N2-(3,4-difluoro)phenyl-5-fluoro-2,4-pyrimidinediamine]
19 | – | 181 | C#CCOc1ccc(Nc2ncc(C)c(Nc3ccc(C)c(S(N)(=O)=O)c3)n2)cc1 [I-2, N4-(3-Aminosulfonyl-4-methylphenyl)-5-methyl-N2-[4-(prop-2-ynyloxy)phenyl]-2,4-pyrimidinediamine]
20 | – | 207 | Cc1cnc(Nc2ccc3[nH]c(CN4CCOCC4)nc3c2)nc1Nc1ccc(CNS(=O)(=O)C2CC2)cc1 [IV-6, N4-(4-cyclopropylsulfonylaminomethyl)phenyl-5-methyl-N2-[2-(morpholin-4-yl)methylbenzoimidazol-5-yl]-2,4-pyrimidinediamine]
21 | – | 349 | Cc1nc2ccc(Nc3ncc(F)c(Nc4ccc5c(c4)CCN5S(C)(=O)=O)n3)cc2[nH]1 [VIII-6, 5-Fluoro-N4-[(1-methylsulfonyl)indolin-5-yl]-N2-(2-methylbenzimidazol-5-yl)-2,4-pyrimidinediamine]
22 | – | 280 | Cc1cnc(Nc2cccc(C(N)=O)c2)nc1Nc1cccc(CNS(=O)(=O)C2CC2)c1 [II-24, N2-(3-aminocarbonyl)phenyl-N4-(3-cyclopropylsulfonylaminomethyl)phenyl-5-methyl-2,4-pyrimidinediamine]
23 | – | 116 | COc1ccc(Nc2ncc(F)c(Nc3ccc(CNS(=O)(=O)C4CC4)cc3)n2)cc1Cl [II-3, N2-(3-chloro-4-methoxy)phenyl-N4-(4-cyclopropylsulfonylaminomethyl)phenyl-5-fluoro-2,4-pyrimidinediamine]
24 | – | 257 | Cc1cnc(Nc2ccc3c(c2)ncn3CCO)nc1Nc1ccc(CNS(=O)(=O)C2CC2)cc1 [IV-8, N4-(4-cyclopropylsulfonylaminomethyl)phenyl-N2-[1-(2-hydroxyethyl)benzoimidazol-5-yl]-5-methyl-2,4-pyrimidinediamine]
